Data set [1] relates to Bacillus subtilis subsp. spizizenii. Nature of the data set: Toxicity screen, serial dilution-spot test.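 Note: last dilution that did not fully inhibit growth with colonies still present.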 The settings on record: gram positive; 24 h exposure in DI water, 28 °C; 0.0001 = no colonies at 0.001 mM. It counts as cell-based. As for the experimental part:
(§1) An estimation of the toxicity of 4-(N-alkylpyridinium)-1,4-DHP derivatives 3, 6, 7, and 9–11 was performed using six prokaryotic (bacteria) and one eukaryotic (yeast) microorganism species according to the procedure elaborated by Suppi et al.. The microorganisms used in the study and their origin were: Bacillus subtilis subsp. spizizenii (ATCC® 6633™*, Microbiologics®, St Cloud, MN, USA), Escherichia coli (ATCC® 8739, Microbiologics®), Klebsiella pneumoniae (Latvian Microorganisms strain collection, LMKK, strain number 535, Riga, Latvia), Micrococcus luteus (LMKK, No. 25), Pseudomonas aeruginosa (NCTC 12924, Biosciences Ltd., Dublin, Ireland), Proteus mirabilis (LMKK, No 590), and Saccharomyces cerevisiae, CEN.PK2 strain [32].
(§2) Bacteria and yeast cultures were cultivated until their exponential growth phase (optical density max 1); then, 100 µL of cell suspension was taken, washed in deionised (DI) water, and added to serially diluted samples of corresponding 4-(N-alkylpyridinium)-1,4-DHPs in DI water. All 1,4-DHPs were tested in five serially diluted concentrations (10 mM, 1 mM, 0.1 mM, 0.01 mM, and 0.001 mM). Test organisms were exposed to 1,4-DHP derivatives in DI water on 96-well microplates (Corning, Corning, NY, USA) at 28 °C for 24 h without shaking in the dark. Then, a 5 µL sample was taken from each well and spotted on yeast extract, bactopeptone, dextrose broth (YPD) (yeast extract 1%, bactopeptone 2%, glucose 2% and agar 2%) plates to test the growth of yeasts and lysogeny broth (LB) (yeast extract 0.5%, bactopeptone 1%, NaCl 0.5% and agar 2%) to test the growth for bacteria. Plates were left in 30 °C for 24 h, and assessed for microbial growth.
(§3) If there were no colonies after incubation with 1,4-DHPs in the last concentration of (0.001 mM), then their boundary concentration was set to 0.0001 mM or 0.1 µM.

For data set [2], the system named is Escherichia coli. Nature of the data set: Toxicity screen, serial dilution-spot test.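 Note: last dilution that did not fully inhibit growth with colonies still present.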 It counts as cell-based. The conditions noted are these: gram negative; 24 h exposure in DI water, 28 °C; 0.0001 = no colonies at 0.001 mM. As for the experimental part:
as §1, §2, §3

For data set [3], the system named is Klebsiella pneumoniae. In words: Toxicity screen, serial dilution-spot test.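 Note: last dilution that did not fully inhibit growth with colonies still present.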 The conditions noted are these: gram negative; 24 h exposure in DI water, 28 °C; 0.0001 = no colonies at 0.001 mM. It counts as cell-based. As for the experimental part: as §1, §2, §3
The test system of data set [4] is Micrococcus luteus. In words: Toxicity screen, serial dilution-spot test.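 Note: last dilution that did not fully inhibit growth with colonies still present.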 It counts as cell-based. The settings on record: gram positive; 24 h exposure in DI water, 28 °C; 0.0001 = no colonies at 0.001 mM. As for the experimental part: as §1, §2, §3
Data set [5] concerns Proteus mirabilis. In words: Toxicity screen, serial dilution-spot test.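 Note: last dilution that did not fully inhibit growth with colonies still present.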 It counts as cell-based. The conditions noted are these: gram negative; 24 h exposure in DI water, 28 °C; 0.0001 = no colonies at 0.001 mM. As for the experimental part:
as §1, §2, §3

Data set [6] relates to Pseudomonas aeruginosa. Nature of the data set: Toxicity screen, serial dilution-spot test.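 Note: last dilution that did not fully inhibit growth with colonies still present.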 It counts as cell-based. The settings on record: gram negative; 24 h exposure in DI water, 28 °C; 0.0001 = no colonies at 0.001 mM. As for the experimental part:
as §1, §2, §3

The test system of data set [7] is Saccharomyces cerevisiae, CEN.PK2 strain. In words: Toxicity screen, serial dilution-spot test.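 Note: last dilution that did not fully inhibit growth with colonies still present.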 It counts as cell-based. The conditions noted are these: yeast; 24 h exposure in DI water, 28 °C; 0.0001 = no colonies at 0.001 mM. Here is the method: as §1, §2, §3
For data set [8], the system named is six prokaryotic (bacteria) and one eukaryotic (yeast) microorganism species. In words: Toxicity screen, whole panel of microorganisms. It counts as cell-based. The conditions noted are these: concentrations tested 10 to 0.001 mM. Here is the method:
as §1, §2, §3

Data set [9] is described as follows: Self-assembling properties by dynamic light scattering (DLS). It counts as physicochemical. The settings on record: for PDI ± SD, 1 Set: freshly prepared samples; for Zeta-Pot ± SD: freshly prepared samples in water, 0.5 mg/mL (1–7), 0.25 mg/mL (8–10), 0.1 mg/mL (11); for PDI ± SD, 2 Set: two weeks after the first set, samples stored at r.t.; for Stability of nanoparticles: two weeks of storage at r.t., DLS. As for the experimental part:
Samples of compounds for dynamic light scattering (DLS) studies were prepared by thin-film hydration method in an aqueous solution at a concentration of 0.5 mg/mL for compounds 1–7, 0.25 mg/mL for compounds 8–10, and 0.1 mg/mL for compound 11. A corresponding amount of compounds was weighted in a round-bottom flask and dissolved in chloroform; then, the organic solvent was removed in vacuo, and the residue was dried in high vacuo for 1 h. An appropriate amount of deionised water was added to each flask for the preparation of stock solutions with the above-mentioned concentrations. Samples were prepared by sonication using a bath-type sonicator (Cole Parmer Ultrasonic Cleaner 8891CPX (Vernon Hills, IL, USA)). Samples were sonicated for 60 min at 50 °C.
The DLS measurements of the nanoparticles in an aqueous solution were carried out on a Zetasizer Nano ZSP (Malvern Panalytical Ltd., Malvern, UK) instrument with Malvern Instruments Ltd. Software 7.12, using the following specifications—medium: water; refractive index: 1.33; viscosity: 0.8872 cP; temperature: 25 °C; dielectric constant: 78.5; nanoparticles: liposomes; refractive index of materials: 1.60; detection angle: 173°; wavelength: 633 nm. Data were analysed using the multimodal number distribution software that was included with the instrument. The measurements were performed in triplicate in order to check their reproducibility.

Data set [10] can be described thus: Basal cytotoxicity test (neutral red uptake) with estimation of LD50 from IC50. The conditions noted are these: mouse, NIH 3T3 fibroblast cells. It counts as cell-based, mouse. As for the experimental part: The neutral red uptake (NRU) assay was performed according to the standard protocol of Stokes modified by NICEATM-ECVAM validation study. The NRU cytotoxicity assay procedure was based on the ability of viable cells to incorporate and bind neutral red, which is a supravital dye.
NIH 3T3 (Mouse Swiss Albino embryo fibroblast) cells (9000 cells/well) were placed into 96-well plates for 24 h in DMEM medium containing 5% fetal bovine serum (FBS). Then, they were exposed to the test compound over a range of seven concentrations (1000 μg/mL, 316 μg/mL, 100 μg/mL, 31 μg/mL, 10 μg/mL, 3.0 μg/mL, and 1.0 μg/mL) for 24 h. Untreated cells were used as a control. After 24 h, the medium was removed from all plates. Then, 250 μL of neutral red (NR) solution was added (0.05 mg/mL NR in DMEM 24 h pre-incubated at 37 °C and then filtered before use through a 0.22-µm syringe filter). Plates were incubated for 3 h, and then, cells were washed three times with phosphate buffered saline (PBS). The dye within viable cells was released by extraction with a mixture of acetic acid, ethanol, and water (1:50:49). The absorbance of neutral red was measured using a spectrophotometer multiplate reader Infinite M1000 (Tecan Austria GmbH, Salzburg, Austria) at 540 nm. The optical density (OD) was calculated using the formula: OD (treated cells) × 100/OD (control cells). The IC50 values were calculated using the program Graph Pad Prism® 3.0.
Data from the in vitro tests were used for estimating the starting dose for acute oral systemic toxicity tests in rodent. The in vivo starting dose is an estimated LD50 value that is calculated by inserting the in vitro IC50 value into a regression formula: log LD50 (mM/kg) = 0.439 log IC50 (mM) + 0.621 [29]. The value is recalculated to mg/kg, and compounds are evaluated in accordance with four toxicity categories: category 1: LD50 ≤ 5 mg/kg (highly toxic); category 2: 5 < LD50 ≤ 50 mg/kg (moderately toxic); category 3: 50 < LD50 ≤ 300 mg/kg (slightly toxic); category 4: 300 < LD50 ≤ 2000 mg/kg (practically non-toxic). Using an alternative in vitro method enables comparing the possible toxicity of new compounds and selecting compounds for further study, which will vastly reduce the number of animal experiments.

The mark [11] stands for this setting: category by estimated LD50 (mg/kg), read-out: Toxicity category from estimated LD50.

“And” between values parts separate entries of the source, which are not always exact repeats. Equal values may be shown once. “Also recorded” adds a separate entry of the source. Read-outs that look alike come from different tables or passages of the source.

As for `CCCCCCCCCCCC[n+]1cccc(C2C(C(=O)OCC)=C(C)NC(C)=C2C(=O)OCC)c1` [Compound 3], the “Boundary concentration, B. subtilis” value in data set [1] is 0.01 mM. Moreover, in data set [2], the “Boundary concentration, E. coli” value was found to be 0.01 mM. The “Boundary concentration, K. pneumoniae” value in data set [3] was found to be 0.1 mM. The “Boundary concentration, M. luteus” value in data set [4] worked out at 0.001 mM. Also, the “Boundary concentration, P. mirabilis” value in data set [5] is on record as 0.001 mM. In data set [6], the “Boundary concentration, P. aeruginosa” value came to 0.01 mM. Also, in [7], the “Boundary concentration, S. cerevisiae” value is given as 0.001 mM. Moreover, the “Effect on survival of microorganisms” value in [8] is reported as “toxic at various degrees”. Further, in data set [9], the “PDI ± SD, 1 Set” value is 0.14 and 0.14 ± 0.01; the “Zeta-Pot ± SD” value is given as “+57.73 ± 2.30 mV”; the “PDI ± SD, 2 Set” value is 0.17 and 0.17 ± 0.02; the Stability of nanoparticles result is “stable after two weeks of storage; also recorded: confirmed the stability of nanoparticles”.

As to `C#CCN1C(C)=C(C(=O)OCC)C(c2ccc[n+](CCCCCCCCCCCC)c2)C(C(=O)OCC)=C1C` [Compound 6], the LD50 at 24 h in data set [10] (setting [11]) was 50 to 300 mg/kg. Moreover, the “Boundary concentration, B. subtilis” value in data set [1] turned out to be 0.0001 mM. Besides, in data set [2], the “Boundary concentration, E. coli” value came out at 0.001 mM. For the same compound, the “Boundary concentration, K. pneumoniae” value in [3] came out at 0.1 mM. The “Boundary concentration, M. luteus” value in [4] is 0.0001 mM. Besides, the “Boundary concentration, P. mirabilis” value in data set [5] is 1 mM. In addition, in [6], the “Boundary concentration, P. aeruginosa” value is given as 0.01 mM. Also, the “Boundary concentration, S. cerevisiae” value in [7] came out at 0.001 mM. Besides, the “Effect on survival of microorganisms” value in [8] was “toxic at various degrees”. For the same compound, in data set [9], the “PDI ± SD, 1 Set” value is 0.15 and 0.15 ± 0.02; the “PDI ± SD, 2 Set” value is 0.20 and 0.20 ± 0.01; the Stability of nanoparticles entry was “stable after two weeks of storage; also recorded: confirmed the stability of nanoparticles”.

In the case of `C#CCOC(=O)C1=C(C)NC(C)=C(C(=O)OCC#C)C1c1ccc[n+](CC)c1` [Compound 7], in data set [10] (calculated from NIH 3T3 NRU IC50, recalculated to mg/kg, read-out: Basal Cytotoxicity Estimated LD50), the LD50 at 24 h is more than 2700 mg/kg. Moreover, in data set [1], the “Boundary concentration, B. subtilis” value was 0.1 mM. The “Boundary concentration, E. coli” value in data set [2] is 1 mM. Moreover, the “Boundary concentration, K. pneumoniae” value in [3] worked out at 10 mM. Moreover, in [4], the “Boundary concentration, M. luteus” value is on record as 0.001 mM. In [5], the “Boundary concentration, P. mirabilis” value is recorded as 0.1 mM. In data set [6], the “Boundary concentration, P. aeruginosa” value is 0.01 mM. Also, the “Boundary concentration, S. cerevisiae” value in data set [7] worked out at 1 mM. For the same compound, in [9], the “PDI ± SD, 1 Set” value was 0.90 and 0.90 ± 0.03; the “Zeta-Pot ± SD” value is recorded as −0.78 ± 0.26 mV; the “PDI ± SD, 2 Set” value stood at 0.73 ± 0.09; the Stability of nanoparticles result is reported as “weak stability”.

Consider `C#CCOC(=O)C1=C(C)NC(C)=C(C(=O)OCC#C)C1c1ccc[n+](CCCCCCCCCCCC)c1` [Compound 9], for which the LD50 at 24 h in [10] (setting [11]) was 50 to 300 mg/kg. In addition, the “Boundary concentration, B. subtilis” value in [1] came to 0.01 mM. In [2], the “Boundary concentration, E. coli” value came to 0.0001 mM. The “Boundary concentration, K. pneumoniae” value in data set [3] came to 0.1 mM. Further, the “Boundary concentration, M. luteus” value in data set [4] came to 0.0001 mM. In data set [5], the “Boundary concentration, P. mirabilis” value came to 0.01 mM. Moreover, the “Boundary concentration, P. aeruginosa” value in [6] was 0.01 mM. For the same compound, in [7], the “Boundary concentration, S. cerevisiae” value is 0.0001 mM. The “Effect on survival of microorganisms” value in data set [8] was “toxic at various degrees”. Moreover, in data set [9], the “PDI ± SD, 1 Set” value is 0.36 and 0.36 ± 0.08; the “Zeta-Pot ± SD” value is listed as “+32.00 ± 4.81 mV”; the “PDI ± SD, 2 Set” value was 0.57 and 0.57 ± 0.05; the Stability of nanoparticles entry was “lost their homogeneity after two weeks of storage”.

As usually defined, the LD50 is the dose at which mortality reaches 50%.

Source of the values: paper PMC6470589, “Contribution of Molecular Structure to Self-Assembling and Biological Properties of Bifunctional Lipid-Like 4-(N-Alkylpyridinium)-1,4-Dihydropyridines” (Pharmaceutics, 2019).
